Experimental data as given in US20250281462A1, “THERAPEUTICALLY EFFECTIVE ORAL ADMINISTRATION OF A 2 ARYLBENZIMIDAZOLE” (Tranquis Therapeutics, Inc., priority 2021, published 2025).
“And” between values parts separate entries of the source, which are not always exact repeats. Equal entries are not always repeated.

Test: clinical
Settings: male, human, in vivo, 120 mg

## CC(C)(C)c1ccc(-c2nc3cc(O)ccc3[nH]2)cc1 [TQS-621]
  half-life: 10.2 h
AUC(0-tau)
  AUC: 2270 ng·h/mL
Cmax
  Cmax: 331 ng/mL and 1.24 µM
Tmax
  Tmax: 1.5 h
Tmax (median)
  Tmax: 1.75 h
po, Tmax (median)
  Tmax: 1.5 h
